Where two headings read alike, the source gives them in different places.
Legend:
[1] = test system: HIV-1 (IIIB) in MT-4 cells; experiment: MT-4 HIV assay; type: cell-based; details: Human immunodeficiency virus 1, MT4, 120 h
Outline: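 MT-4 cells infected with HIV-1 IIIB (1:250 stock dilution) were incubated with 1:3 serially diluted compounds in RPMI with 10% FBS for 5 days at 37 °C. Cell Titer Glo luminescence was the readout. Plates included mock-infected wells, no-drug wells and 5 uM AZT controls.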

[2] = Protocol: Liver Microsomal Stability Protocol
Test compounds and one control compound (verapamil) were tested in 3 different species in duplicate sets.
Test compound concentration: 1 uM; Protein concentration: 0.5 mg/mL (for dog, rat, and human liver microsomes); Cofactor: NADPH-Regenerating system (NRS) solution; Time-points: 2, 12, 25, 45, and 65 minutes.
Reaction composition (in each incubation well) contains:
After plates were vortexed, they were centrifuged for 30 minutes to remove proteins. About 100 μL supernatant was removed to a new plate and diluted with 150 μL water. About 20 μL of the mixture was injected into LC/MS/MS system to monitor the compound's response. In vitro measured t1/2 was used to calculate Clint values.

[3] = HIV-1 (IIIB), MT-4 cells, 5 days, Cell Titer Glo, read-out: EC50
[4] = human liver microsomes 0.5 mg/mL, 1 uM compound, NADPH

Human Pred Cl. [2, 4] | Rat. Pred. Cl. ([2]; rat liver microsomes 0.5 mg/mL, 1 uM compound, NADPH) | Structure (SMILES) | EC50 [1, 3] | Human Pred Cl. ([2]; human, microsomes) | Dog. Pred. Cl. ([2]; dog, microsomes) | Rat. Pred. Cl. ([2]; rat, microsomes) | EC50 [1]
– | – | COC(=O)N[C@H](C(=O)N[C@@H](Cc1ccc(C#Cc2ccc(N3CC4CCC(C3)N4C3(C)COC3)nc2)cc1)[C@@H](O)CN(Cc1c(F)cc(-c2ccn(C(F)F)n2)cc1F)NC(=O)[C@@H](NC(=O)OC)C(C)(C)C(F)(F)F)C(C)(C)C(F)(F)F [Example 144, Methyl ((5S,8S,9S,14S)-11-(4-(1-(difluoromethyl)-1H-pyrazol-3-yl)-2,6-difluorobenzyl)-16,16,16-trifluoro-9-hydroxy-15,15-dimethyl-8-(4-((6-(8-(3-methyloxetan-3-yl)-3,8-diazabicyclo[3.2.1]octan-3-yl)pyridin-3-yl)ethynyl)benzyl)-3,6,13-trioxo-5-(1,1,1-trifluoro-2-methylpropan-2-yl)-2-oxa-4,7,11,12-tetraazahexadecan-14-yl)carbamate] | 5.12 nM | 0.95 L/H/kg | – | – | –
– | – | CC(C)([C@H](NC(=O)OC1COC1)C(=O)N[C@@H](Cc1ccc(C#Cc2cnc(N3CC4CCC(C3)N4C3COC3)nc2)cc1)[C@@H](O)CN(Cc1c(F)cc(-c2ccn(C(F)F)n2)cc1F)NC(=O)[C@@H](NC(=O)OC1COC1)C(C)(C)C(F)(F)F)C(F)(F)F [Example 220, Oxetan-3-yl ((2S)-1-(2-(4-(1-(difluoromethyl)-1H-pyrazol-3-yl)-2,6-difluorobenzyl)-2-((2S,3S)-2-hydroxy-4-(4-((2-(8-(oxetan-3-yl)-3,8-diazabicyclo [3.2.1]octan-3-yl)pyrimidin-5-yl)ethynyl)phenyl)-3-((S)-4,4,4-trifluoro-3,3-dimethyl-2-(((oxetan-3-yloxy)carbonyl)amino)butanamido)butyl)hydrazinyl)-4,4,4-trifluoro-3,3-dimethyl-1-oxobutan-2-yl)carbamate] | 7.66 nM | <0.11 L/H/kg | 0.46 L/H/kg | 0.34 L/H/kg | –
<0.11 L/H/kg | – | COC(=O)N[C@H](C(=O)N[C@@H](Cc1ccc(C#Cc2cnc(N3CCN(C)C(=O)C3)nc2)cc1)[C@@H](O)CN(Cc1c(F)cc(-c2ccn(C(F)F)n2)cc1F)NC(=O)[C@@H](NC(=O)OC)C(C)(C)C(F)(F)F)C(C)(C)C(F)(F)F [Example 159, methyl ((5S,8S,9S,14S)-11-(4-(1-(difluoromethyl)-1H-pyrazol-3-yl)-2,6-difluorobenzyl)-16,16,16-trifluoro-9-hydroxy-15,15-dimethyl-8-(4-((2-(4-methyl-3-oxopiperazin-1-yl)pyrimidin-5-yl)ethynyl)benzyl)-3,6,13-trioxo-5-(1,1,1-trifluoro-2-methylpropan-2-yl)-2-oxa-4,7,11,12-tetraazahexadecan-14-yl)carbamate] | – | – | – | – | 3.83 nM
– | – | COC(=O)N[C@H](C(=O)N[C@@H](Cc1ccc(C#Cc2ccc(N3CC4CCC(C3)N4C3COC3)nc2)cc1)[C@@H](O)CN(Cc1c(F)cc(-c2nnc(C)o2)cc1F)NC(=O)[C@@H](NC(=O)OC)C(C)(C)C(F)(F)F)C(C)(C)C(F)(F)F [Example 11, Methyl ((5S,8S,9S,14S)-11-(2,6-difluoro-4-(5-methyl-1,3,4-oxadiazol-2-yl)benzyl)-16,16,16-trifluoro-9-hydroxy-15,15-dimethyl-8-(4-((6-(8-(oxetan-3-yl)-3,8-diazabicyclo[3.2.1]octan-3-yl)pyridin-3-yl)ethynyl)benzyl)-3,6,13-trioxo-5-(1,1,1-trifluoro-2-methylpropan-2-yl)-2-oxa-4,7,11,12-tetraazahexadecan-14-yl)carbamate] | 3.72 nM | 0.18 L/H/kg | – | 0.18 L/H/kg | –
– | – | COC(=O)N[C@H](C(=O)NN(Cc1c(F)cc(-c2cnn(C(F)F)c2)cc1F)C[C@H](O)[C@H](Cc1ccc(C#Cc2ccc(N3CC4CCC(C3)N4C3COC3)nc2)cc1)NC(=O)[C@@H](NC(=O)OC)C(C)(C)C(F)(F)F)C(C)(C)C [Example 86, Methyl ((5S,8S,9S,14S)-11-(4-(1-(difluoromethyl)-1H-pyrazol-4-yl)-2,6-difluorobenzyl)-9-hydroxy-15,15-dimethyl-8-(4-((6-(8-(oxetan-3-yl)-3,8-diazabicyclo[3.2.1]octan-3-yl)pyridin-3-yl)ethynyl)benzyl)-3,6,13-trioxo-5-(1,1,1-trifluoro-2-methylpropan-2-yl)-2-oxa-4,7,11,12-tetraazahexadecan-14-yl)carbamate] | 2.61 nM | <0.11 L/H/kg | – | <0.18 L/H/kg | –
– | – | COC(=O)N[C@H](C(=O)N[C@@H](Cc1ccc(-c2ccc(N3CC4CCC(C3)N4C3COC3)nc2)cc1)[C@@H](O)CN(Cc1c(F)cc(-c2ccn(C)n2)cc1F)NC(=O)[C@@H](NC(=O)OC)C(C)(C)C)C(C)(C)C [Example 206, Methyl ((5S,8S,9S,14S)-5-(tert-butyl)-11-(2,6-difluoro-4-(1-methyl-1H-pyrazol-3-yl)benzyl)-9-hydroxy-15,15-dimethyl-8-(4-(6-(8-(oxetan-3-yl)-3,8-diazabicyclo [3.2.1]octan-3-yl)pyridin-3-yl)benzyl)-3,6,13-trioxo-2-oxa-4,7,11,12-tetraazahexadecan-14-yl)carbamate] | 3.7 nM | 0.41 L/H/kg | – | 1.03 L/H/kg | –
– | – | COC(=O)N[C@H](C(=O)NN(Cc1c(F)cc(-c2ccn(CC(F)F)n2)cc1F)C[C@H](O)[C@H](Cc1ccc(C#Cc2ccc(N3CC4CCC(C3)N4C3COC3)nc2)cc1)NC(=O)[C@@H](NC(=O)OC)C(C)(C)C(F)(F)F)C(C)(C)C [Example 6, methyl ((5S,8S,9S,14S)-11-(4-(1-(2,2-difluoroethyl)-1H-pyrazol-3-yl)-2,6-difluorobenzyl)-9-hydroxy-15,15-dimethyl-8-(4-((6-(8-(oxetan-3-yl)-3,8-diazabicyclo[3.2.1]octan-3-yl)pyridin-3-yl)ethynyl)benzyl)-3,6,13-trioxo-5-(1,1,1-trifluoro-2-methylpropan-2-yl)-2-oxa-4,7,11,12-tetraazahexadecan-14-yl)carbamate] | 3.56 nM | <0.11 L/H/kg | – | 0.22 L/H/kg | –
– | – | COC(=O)N[C@H](C(=O)N[C@@H](Cc1ccc(C#Cc2ccc(N3CC4CCC(C3)N4C3COC3)nc2)cc1)[C@@H](O)CN(Cc1c(F)cc(-c2ccc(C(F)F)cn2)cc1F)NC(=O)[C@@H](NC(=O)OC)C(C)(C)C(F)(F)F)C(C)(C)C(F)(F)F [Example 99, Methyl ((5S,8S,9S,14S)-11-(4-(5-(difluoromethyl)pyridin-2-yl)-2,6-difluorobenzyl)-16,16,16-trifluoro-9-hydroxy-15,15-dimethyl-8-(4-((6-(8-(oxetan-3-yl)-3,8-diazabicyclo [3.2.1]octan-3-yl)pyridin-3-yl)ethynyl)benzyl)-3,6,13-trioxo-5-(1,1,1-trifluoro-2-methylpropan-2-yl)-2-oxa-4,7,11,12-tetraazahexadecan-14-yl)carbamate] | 7.96 nM | <0.11 L/H/kg | – | 0.26 L/H/kg | –
<0.11 L/H/kg | – | COC(=O)N[C@H](C(=O)N[C@@H](Cc1ccc(C#Cc2ccc(N3CCN([C@@H]4CCOC4)CC3)nc2)cc1)[C@@H](O)CN(Cc1c(F)cc(-c2ccn(C(F)F)n2)cc1F)NC(=O)[C@@H](NC(=O)OC)C(C)(C)C(F)(F)F)C(C)(C)C(F)(F)F [Example 146, Methyl ((5S,8S,9S,14S)-11-(4-(1-(difluoromethyl)-1H-pyrazol-3-yl)-2,6-difluorobenzyl)-16,16,16-trifluoro-9-hydroxy-15,15-dimethyl-3,6,13-trioxo-8-(4-((6-(4-((R)-tetrahydrofuran-3-yl)piperazin-1-yl)pyridin-3-yl)ethynyl)benzyl)-5-(1,1,1-trifluoro-2-methylpropan-2-yl)-2-oxa-4,7,11,12-tetraazahexadecan-14-yl)carbamate] | 8.17 nM | – | – | – | –
1.12 L/H/kg | 1.21 L/H/kg | COC(=O)N[C@H](C(=O)N[C@@H](Cc1ccc(-c2cnn(C(F)F)c2)cc1)[C@@H](O)CN(Cc1c(F)cc(-c2ccn(C(F)F)n2)cc1F)NC(=O)[C@@H](NC(=O)OC)C(C)(C)C(F)(F)F)C(C)(C)C(F)(F)F [Example 209, Methyl ((5S,8S,9S,14S)-11-(4-(1-(difluoromethyl)-1H-pyrazol-3-yl)-2,6-difluorobenzyl)-8-(4-(1-(difluoromethyl)-1H-pyrazol-4-yl)benzyl)-16,16,16-trifluoro-9-hydroxy-15,15-dimethyl-3,6,13-trioxo-5-(1,1,1-trifluoro-2-methylpropan-2-yl)-2-oxa-4,7,11,12-tetraazahexadecan-14-yl)carbamate] | – | – | – | – | 3.19 nM
– | – | COC(=O)N[C@H](C(=O)N[C@@H](Cc1ccc(C#Cc2cnc(N3CC4CCC(C3)N4C3COC3)nc2)cc1)[C@@H](O)CN(Cc1c(F)cc(-c2ccn(C(F)F)n2)cc1F)NC(=O)[C@@H](NC(=O)C1CC1)C(C)(C)C(F)(F)F)C(C)(C)C(F)(F)F [Example 186, Methyl ((2S)-1-(((2S,3S)-4-(2-((S)-2-(cyclopropanecarboxamido)-4,4,4-trifluoro-3,3-dimethylbutanoyl)-1-(4-(1-(difluoromethyl)-1H-pyrazol-3-yl)-2,6-difluorobenzyl) hydrazinyl)-3-hydroxy-1-(4-((2-(8-(oxetan-3-yl)-3,8-diazabicyclo[3.2.1]octan-3-yl)pyrimidin-5-yl)ethynyl)phenyl)butan-2-yl)amino)-4,4,4-trifluoro-3,3-dimethyl-1-oxobutan-2-yl)carbamate] | 4.74 nM | <0.11 L/H/kg | – | – | –
